Laboratory results: patent publication US7053160B1, “Metallocene monohalogenides” (Basell Polyolefine GmbH, priority 1998, dated 2006)

Test: Solubility comparison in toluene at room temperature
Format: physicochemical
Conditions: about 50 mg of solid dissolved

Compound | solubility
Dimethylsilanediylbis(2-methylindenyl)zirconium monochloride mono(2,4-di-tert-butylphenoxide) [compound 2] | > 15 mM
CC1=Cc2c(ccc3ccccc23)[C]12[Si](C)(C)[C]1(C(C)=Cc3c1ccc1ccccc31)[Zr]2([Cl])[O]c1ccc(C(C)(C)C)cc1C(C)(C)C (stereo not shown) [compound 1, Dimethylsilanediylbis(2-methyl-4,5-benzoindenyl)zirconium monochloride mono(2,4-di-tert-butylphenoxide)] | > 13 mM
CC1=Cc2c(ccc3ccccc23)[C]12[Si](C)(C)[C]1(C(C)=Cc3c1ccc1ccccc31)[Zr]2([Cl])[Cl] (stereo not shown) [dimethylsilanediylbis(2-methyl-4,5-benzoindenyl)zirconium dichloride] | about 0.36 mmol/l
Cc1cc2ccccc2[c-]1[Si](C)(C)[c-]1c(C)cc2ccccc21.[Cl-].[Cl-].[Zr+4] (stereo not shown) [dimethylsilanediylbis(2-methylindenyl)zirconium dichloride] | about 2.1 mmol/l
